Reference: PubChem BioAssay AID2060601 (Molecular Pharmacology Branch, DTP, NCI, 2025)

System: 874868-142-R-J2-PDC complex spheroids, growth % test/control
Test: Anticancer human tumor 874868-142-R-J2-PDC patient-derived head and neck squamous carcinoma cell line growth inhibition [CLK]
Settings: for IC50: curve of first compound; for viability, T/C: stronger effect = lower value; active means viability on the fitted dose curve at most 10% of control; inactive means the rest
Method in brief: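 Patient-derived tumor cells grown as complex spheroids with HUVEC endothelial cells and mesenchymal stem cells, treated with drug combinations. Concentrations descend in half-log steps from near clinical Cmax, or from 10 microM if Cmax unknown.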

[1] = second compound 0.0316 µM, first compound 0.0316 µM
[2] = second compound 0.0316 µM, first compound 0.1 µM
[3] = second compound 0.0316 µM, first compound 0.316 µM
[4] = second compound 0.0316 µM, first compound 1 µM
[5] = second compound 0.1 µM, first compound 0.0316 µM
[6] = second compound 0.1 µM, first compound 0.1 µM
[7] = second compound 0.1 µM, first compound 0.316 µM
[8] = second compound 0.1 µM, first compound 1 µM
[9] = second compound 0.316 µM, first compound 0.0316 µM
[10] = second compound 0.316 µM, first compound 0.1 µM
[11] = second compound 0.316 µM, first compound 0.316 µM
[12] = second compound 0.316 µM, first compound 1 µM
[13] = second compound 1 µM, first compound 0.0316 µM
[14] = second compound 1 µM, first compound 0.1 µM
[15] = second compound 1 µM, first compound 0.316 µM
[16] = second compound 1 µM, first compound 1 µM
[17] = second compound 3.16 µM, first compound 0.0316 µM
[18] = second compound 3.16 µM, first compound 0.1 µM
[19] = second compound 3.16 µM, first compound 0.316 µM
[20] = second compound 3.16 µM, first compound 1 µM
[21] = second compound 10 µM, first compound 0.0316 µM
[22] = second compound 10 µM, first compound 0.1 µM
[23] = second compound 10 µM, first compound 0.316 µM
[24] = second compound 10 µM, first compound 1 µM
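Further: spheroids exposed to the compounds for 7 days.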
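Wherever viability, T/C is given: 100% = DMSO vehicle control viability.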

C=CC(=O)Nc1cc(Nc2nccc(-c3cn(C)c4ccccc34)n2)c(OC)cc1N(C)CCN(C)C + CNC(=O)c1ccc(Nc2nc(OC3CCCC3)c3c(-c4ccc5nc(C)oc5c4)c[nH]c3n2)c(OC)c1
< 0.949 nM: IC50 (second compound 1 µM) | IC50 (second compound 3.16 µM) | IC50 (second compound 10 µM)
35.9 nM: IC50 (second compound 0.0316 µM)
inactive: viability, T/C (second compound 0.0316 µM, first compound 0.000949 µM) 101% | viability, T/C (second compound 0.0316 µM, first compound 0.003 µM) 115% | viability, T/C (second compound 0.0316 µM, first compound 0.00949 µM) 77.4% | viability, T/C (second compound 0.0316 µM, first compound 0.03 µM) 51.3% | viability, T/C (second compound 0.0316 µM, first compound 0.0949 µM) 45.7% | viability, T/C (second compound 0.0316 µM, first compound 0.3 µM) 23.9% | viability, T/C (second compound 0.1 µM, first compound 0.000949 µM) 103% | viability, T/C (second compound 0.1 µM, first compound 0.003 µM) 75% | viability, T/C (second compound 0.1 µM, first compound 0.00949 µM) 57.5% | viability, T/C (second compound 0.1 µM, first compound 0.03 µM) 52.4% | viability, T/C (second compound 0.1 µM, first compound 0.0949 µM) 30.6% | viability, T/C (second compound 0.1 µM, first compound 0.3 µM) 19.8% | viability, T/C (second compound 0.316 µM, first compound 0.000949 µM) 64.4% | viability, T/C (second compound 0.316 µM, first compound 0.003 µM) 48.9% | viability, T/C (second compound 0.316 µM, first compound 0.00949 µM) 48% | viability, T/C (second compound 0.316 µM, first compound 0.03 µM) 38.5% | viability, T/C (second compound 0.316 µM, first compound 0.0949 µM) 24.8% | viability, T/C (second compound 0.316 µM, first compound 0.3 µM) 24.3% | viability, T/C (second compound 1 µM, first compound 0.000949 µM) 48.9% | viability, T/C (second compound 1 µM, first compound 0.003 µM) 40.5% | viability, T/C (second compound 1 µM, first compound 0.00949 µM) 38.6% | viability, T/C (second compound 1 µM, first compound 0.03 µM) 32.5% | viability, T/C (second compound 1 µM, first compound 0.0949 µM) 26.4% | viability, T/C (second compound 1 µM, first compound 0.3 µM) 14.4% | viability, T/C (second compound 3.16 µM, first compound 0.000949 µM) 43.4% | viability, T/C (second compound 3.16 µM, first compound 0.003 µM) 39.6% | viability, T/C (second compound 3.16 µM, first compound 0.00949 µM) 38% | viability, T/C (second compound 3.16 µM, first compound 0.03 µM) 31.5% | viability, T/C (second compound 3.16 µM, first compound 0.0949 µM) 25.5% | viability, T/C (second compound 3.16 µM, first compound 0.3 µM) 20% | viability, T/C (second compound 10 µM, first compound 0.000949 µM) 41.8% | viability, T/C (second compound 10 µM, first compound 0.003 µM) 37.7% | viability, T/C (second compound 10 µM, first compound 0.00949 µM) 32.7% | viability, T/C (second compound 10 µM, first compound 0.03 µM) 32.3% | viability, T/C (second compound 10 µM, first compound 0.0949 µM) 28% | viability, T/C (second compound 10 µM, first compound 0.3 µM) 18.3%
22.2 nM: IC50 (second compound 0.1 µM)
4.75 nM: IC50 (second compound 0.316 µM)

CCN1CCN(Cc2ccc(Nc3ncc(F)c(-c4cc(F)c5nc(C)n(C(C)C)c5c4)n3)nc2)CC1 + CNC(=O)c1ccc(Nc2nc(OC3CCCC3)c3c(-c4ccc5nc(C)oc5c4)c[nH]c3n2)c(OC)c1
< 3.16 nM: IC50 (second compound 1 µM) | IC50 (second compound 3.16 µM) | IC50 (second compound 10 µM)
inactive: viability, T/C (second compound 0.0316 µM, first compound 0.00316 µM) 96.9% | viability, T/C (second compound 0.0316 µM, first compound 0.01 µM) 103% | viability, T/C [1] 95.2% | viability, T/C [2] 100% | viability, T/C [3] 121% | viability, T/C [4] 113% | viability, T/C (second compound 0.1 µM, first compound 0.00316 µM) 106% | viability, T/C (second compound 0.1 µM, first compound 0.01 µM) 91.8% | viability, T/C [5] 94.5% | viability, T/C [6] 81.6% | viability, T/C [7] 109% | viability, T/C [8] 113% | viability, T/C (second compound 0.316 µM, first compound 0.00316 µM) 59.4% | viability, T/C (second compound 0.316 µM, first compound 0.01 µM) 62.7% | viability, T/C [9] 56.2% | viability, T/C [10] 64.6% | viability, T/C [11] 84.8% | viability, T/C [12] 99.9% | viability, T/C (second compound 1 µM, first compound 0.00316 µM) 46.2% | viability, T/C (second compound 1 µM, first compound 0.01 µM) 44.8% | viability, T/C [13] 44.4% | viability, T/C [14] 49.3% | viability, T/C [15] 67.9% | viability, T/C [16] 68.7% | viability, T/C (second compound 3.16 µM, first compound 0.00316 µM) 41.9% | viability, T/C (second compound 3.16 µM, first compound 0.01 µM) 50.8% | viability, T/C [17] 41.5% | viability, T/C [18] 38.5% | viability, T/C [19] 50.8% | viability, T/C [20] 72.5% | viability, T/C (second compound 10 µM, first compound 0.00316 µM) 46.2% | viability, T/C (second compound 10 µM, first compound 0.01 µM) 40.5% | viability, T/C [21] 56% | viability, T/C [22] 45.6% | viability, T/C [23] 66.8% | viability, T/C [24] 71.2%
> 1000 nM: IC50 (second compound 0.0316 µM) | IC50 (second compound 0.1 µM) | IC50 (second compound 0.316 µM)

Nc1ccccc1NC(=O)c1ccc(CNC(=O)OCc2cccnc2)cc1 + CNC(=O)c1ccc(Nc2nc(OC3CCCC3)c3c(-c4ccc5nc(C)oc5c4)c[nH]c3n2)c(OC)c1
252 nM: IC50 (second compound 1 µM)
inactive: viability, T/C [1] 107% | viability, T/C [2] 87.5% | viability, T/C [3] 110% | viability, T/C [4] 114% | viability, T/C (second compound 0.0316 µM, first compound 3.16 µM) 109% | viability, T/C (second compound 0.0316 µM, first compound 10 µM) 28.7% | viability, T/C [5] 82.6% | viability, T/C [6] 73.7% | viability, T/C [7] 94.4% | viability, T/C [8] 109% | viability, T/C (second compound 0.1 µM, first compound 3.16 µM) 101% | viability, T/C (second compound 0.1 µM, first compound 10 µM) 33.6% | viability, T/C [9] 61.5% | viability, T/C [10] 61.4% | viability, T/C [11] 67.8% | viability, T/C [12] 79.9% | viability, T/C (second compound 0.316 µM, first compound 3.16 µM) 88.9% | viability, T/C (second compound 0.316 µM, first compound 10 µM) 11.3% | viability, T/C [13] 42.4% | viability, T/C [14] 45% | viability, T/C [15] 52.1% | viability, T/C [16] 66.9% | viability, T/C (second compound 1 µM, first compound 3.16 µM) 76.6% | viability, T/C (second compound 1 µM, first compound 10 µM) 11.9% | viability, T/C [17] 49.2% | viability, T/C [18] 47% | viability, T/C [19] 56.9% | viability, T/C [20] 71.8% | viability, T/C (second compound 3.16 µM, first compound 3.16 µM) 72.1% | viability, T/C (second compound 3.16 µM, first compound 10 µM) 10.8% | viability, T/C [21] 41.8% | viability, T/C [22] 44% | viability, T/C [23] 49% | viability, T/C [24] 67.3% | viability, T/C (second compound 10 µM, first compound 3.16 µM) 69.2%
active: viability, T/C (second compound 10 µM, first compound 10 µM) 3.57%
7270 nM: IC50 (second compound 0.0316 µM)
3950 nM: IC50 (second compound 3.16 µM)
3440 nM: IC50 (second compound 10 µM)
4800 nM: IC50 (second compound 0.316 µM)
7260 nM: IC50 (second compound 0.1 µM)
